Publication PMC10281575, “PfCRT mutations conferring piperaquine resistance in falciparum malaria shape the kinetics of quinoline drug binding and transport” (PLOS Pathogens, 2023)
Residue numbers refer to the chain shown, from its start. “Also recorded” adds a separate entry of the source.

Legend:
PfCRT^Dd2 [1] = molecular target: T1, PfCRT^Dd2 (Plasmodium falciparum, UniProt Q8IBZ9, A220S/I356T/K76T/M74I/N326S/N75E/Q271E/R371I); parameters: expressed in transfected cells; host or cells: Xenopus laevis oocytes injected with in vitro transcribed RNA (pSP64T); settings: cited from earlier work
T1 sequence (Q8IBZ9 1-424 M74I/N75E/K76T/A220S/Q271E/N326S/I356T/R371I): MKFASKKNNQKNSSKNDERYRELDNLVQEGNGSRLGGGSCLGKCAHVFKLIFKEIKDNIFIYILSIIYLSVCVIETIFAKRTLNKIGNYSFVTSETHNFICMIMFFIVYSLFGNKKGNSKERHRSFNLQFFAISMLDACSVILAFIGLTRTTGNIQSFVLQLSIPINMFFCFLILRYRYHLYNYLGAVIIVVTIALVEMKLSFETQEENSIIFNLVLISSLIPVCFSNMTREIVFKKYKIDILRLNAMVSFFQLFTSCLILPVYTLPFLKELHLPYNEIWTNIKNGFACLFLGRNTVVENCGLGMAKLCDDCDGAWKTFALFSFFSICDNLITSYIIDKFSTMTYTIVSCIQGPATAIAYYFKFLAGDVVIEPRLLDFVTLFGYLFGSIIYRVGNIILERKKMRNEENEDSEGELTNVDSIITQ

PfCRT^Dd2 [2] = molecular target: T1, PfCRT^Dd2; test: Verapamil inhibition of PfCRT-mediated CQ and PPQ transport in oocytes, PfCRT^Dd2; assay type: cell-based; parameters: expressed in transfected cells; host or cells: Xenopus laevis oocytes injected with in vitro transcribed RNA (pSP64T); settings: 100 μM verapamil, 50 μM CQ or PPQ
Protocol: (§1) In all cases, the PfCRT-mediated CQ and PPQ transport was inhibited in the presence of 100 μM verapamil (S3 Fig).
(§2) Drug transport assays were performed as previously described. Briefly, measurements of radiolabeled drug uptake were made over 1 h, unless otherwise specified. […] Where specified, one or more unlabeled drugs were also present at the indicated concentrations. The direction of drug transport in the assays is from the extracellular medium (pH 6) into the oocyte cytosol (pH 7.2), which corresponds to the efflux of CQ or PPQ from the acidic digestive vacuole (pH 5.2) into the parasite cytosol (pH 7.2). The uptake assays were terminated by removing the oocytes from the reaction medium and washing them three times with 2 mL of ice-cold ND96 buffer. Each oocyte was transferred to a separate scintillation vial and lysed by the addition of 200 μL of a 5% SDS solution. The radioactivity in the sample was measured using a liquid scintillation analyser Tri-Carb 4910 TR (PerkinElmer). Water-injected oocytes were analyzed in parallel as a negative control. The buffer from each condition was measured in duplicate in parallel to each experiment to transform counts per minute into pmol of drug. Drug uptake attributable to PfCRT was determined by subtracting the background uptake from water-injected oocytes from that of PfCRT-expressing oocytes. In all cases, at least three independent experiments were performed on oocytes from different frogs, and for each condition in an experiment, measurements were made from 10 oocytes per treatment.
(§3) Supplementary file ppat.1011436.s006.tif: S3 Fig Verapamil inhibits PfCRT-mediated transport of CQ and PPQ. […] Left panels, data is shown as individual biological replicates (coloured symbols) overlaid onto bars representing the Mean ± S.E.M. (error bars). A one-tailed Student’s t-test was performed between untreated (no VP) and treated (+ 100 μM VP) samples, and the obtained p values are shown. Right panels, the uptake in VP-treated samples was divided by the uptake in their corresponding untreated pairs and subtracted from 100% to get the percentage of uptake inhibition mediated by the presence of 100 μM verapamil in the extracellular medium. Error bars are S.E. (TIF) Click here for additional data file.

PfCRT^Dd2_F145I = molecular target: T2, PfCRT^Dd2_F145I (Plasmodium falciparum, UniProt Q8IBZ9, A220S/F145I/I356T/K76T/M74I/N326S/N75E/Q271E/R371I); test: Verapamil inhibition of PfCRT-mediated CQ and PPQ transport in oocytes, PfCRT^Dd2_F145I; assay type: cell-based; settings: 100 μM verapamil, 50 μM CQ or PPQ
T2 construct: expressed in transfected cells; host or cells: Xenopus laevis oocytes injected with in vitro transcribed RNA (pSP64T)
T2 sequence (Q8IBZ9 1-424 M74I/N75E/K76T/F145I/A220S/Q271E/N326S/I356T/R371I): T1 sequence (Q8IBZ9 1-424 M74I/N75E/K76T/A220S/Q271E/N326S/I356T/R371I) with F145I
Protocol: as §1
as §2, with “In all cases, at least three independent experiments were performed on oocytes from different frogs, and for each condition in an experiment, measurements were made from 10 oocytes per treatment.” left out

PfCRT^Dd2_M343L = molecular target: T3, PfCRT^Dd2_M343L (Plasmodium falciparum, UniProt Q8IBZ9, A220S/I356T/K76T/M343L/M74I/N326S/N75E/Q271E/R371I); test: Verapamil inhibition of PfCRT-mediated CQ and PPQ transport in oocytes, PfCRT^Dd2_M343L; assay type: cell-based; settings: 100 μM verapamil, 50 μM CQ or PPQ
T3 construct: expressed in transfected cells; host or cells: Xenopus laevis oocytes injected with in vitro transcribed RNA (pSP64T)
T3 sequence (Q8IBZ9 1-424 M74I/N75E/K76T/A220S/Q271E/N326S/M343L/I356T/R371I): T1 sequence (Q8IBZ9 1-424 M74I/N75E/K76T/A220S/Q271E/N326S/I356T/R371I) with M343L
Protocol: as §1, §2, §3

PfCRT^Dd2_G353V = molecular target: T4, PfCRT^Dd2_G353V (Plasmodium falciparum, UniProt Q8IBZ9, A220S/G353V/I356T/K76T/M74I/N326S/N75E/Q271E/R371I); test: Verapamil inhibition of PfCRT-mediated CQ and PPQ transport in oocytes, PfCRT^Dd2_G353V; assay type: cell-based; settings: 100 μM verapamil, 50 μM CQ or PPQ
T4 construct: expressed in transfected cells; host or cells: Xenopus laevis oocytes injected with in vitro transcribed RNA (pSP64T)
T4 sequence (Q8IBZ9 1-424 M74I/N75E/K76T/A220S/Q271E/N326S/G353V/I356T/R371I): T1 sequence (Q8IBZ9 1-424 M74I/N75E/K76T/A220S/Q271E/N326S/I356T/R371I) with G353V
Protocol: as §1, §2, §3

PfCRT^Dd2_H97Y = molecular target: T5, PfCRT^Dd2_H97Y (Plasmodium falciparum, UniProt Q8IBZ9, A220S/H97Y/I356T/K76T/M74I/N326S/N75E/Q271E/R371I); test: Verapamil inhibition of PfCRT-mediated CQ and PPQ transport in oocytes, PfCRT^Dd2_H97Y; assay type: cell-based; settings: 100 μM verapamil, 50 μM CQ or PPQ
T5 construct: expressed in transfected cells; host or cells: Xenopus laevis oocytes injected with in vitro transcribed RNA (pSP64T)
T5 sequence (Q8IBZ9 1-424 M74I/N75E/K76T/H97Y/A220S/Q271E/N326S/I356T/R371I): T1 sequence (Q8IBZ9 1-424 M74I/N75E/K76T/A220S/Q271E/N326S/I356T/R371I) with H97Y
Protocol: as §1, §2, §3

| Structure (SMILES) | inhibition model versus CQ on PfCRT (PfCRT^Dd2 [1]) | PfCRT-mediated CQ and PPQ transport in the presence of verapamil (PfCRT^Dd2 [2]) | PfCRT-mediated CQ and PPQ transport in the presence of verapamil (PfCRT^Dd2_F145I) | PfCRT-mediated CQ and PPQ transport in the presence of verapamil (PfCRT^Dd2_M343L) | PfCRT-mediated CQ and PPQ transport in the presence of verapamil (PfCRT^Dd2_G353V) | PfCRT-mediated CQ and PPQ transport in the presence of verapamil (PfCRT^Dd2_H97Y) |
| --- | --- | --- | --- | --- | --- | --- |
| C=C[C@H]1C[N@@]2CC[C@H]1C[C@H]2[C@H](O)c1ccnc2ccc(OC)cc12 [quinine] | partial mixed-type inhibition | – | – | – | – | – |
| COc1ccc(CCN(C)CCCC(C#N)(c2ccc(OC)c(OC)c2)C(C)C)cc1OC (stereo not shown) [verapamil] | partial mixed-type inhibitor; also recorded: mixed-type inhibition | inhibited | inhibited | inhibited | inhibited | inhibited |
